The results in this text go back to PubChem BioAssay (NCI).

In general, TGI refers to the concentration giving total growth inhibition. By GI50 is commonly meant the concentration giving 50% growth inhibition.

Common to all, as to test: DTP human tumour cell line panel, 48 h
In assay [1] the test system is M14 melanoma.
Assay [2] relates to A498 renal.
For assay [3], the system named is SK-MEL-28 melanoma.
In assay [4] the test system is SK-MEL-5 melanoma.
The subject of assay [5] is UACC-62 melanoma.
The test system of assay [6] is NCI-H23 lung.
Assay [7] has as its system A549 NSCLC.
In assay [8] the test system is K-562 leukemia.
Assay [9] relates to 786-0 renal.
Assay [10] relates to NCI-H226 lung.

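Exposure lasted 48 hours, with cells grown in 96-well plates and compounds tested at five concentrations. GI50: concentration for 50% inhibition of growth. TGI: concentration producing complete growth inhibition.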

Consider `O=C(Nc1cc([N+](=O)[O-])cc([N+](=O)[O-])c1)OC1C2CCC1C1OC1C2` (stereo not drawn), for which the TGI in [1], in assay [2], in assay [3], in assay [4], in assay [5] and in assay [6] was above 50 µM each time. Besides, the TGI in [7], in [8] and in assay [9] was above 50 µM each time.
Turning to `C=CC1=C(C)C(Cc2[nH]c(/C=c3\[nH]/c(=C/C4=NC(=O)C(C)/C4=C\C)c(C)c3CCC(=O)O)c(CCC(=O)OC)c2C)NC1=O` (stereo not drawn), the GI50 in assay [1] is 28.3 µM; in assay [2] it was above 100 µM; in assay [3] it was 14.8 µM; in assay [4], 19.9 µM; in [5], 18.7 µM; in assay [6], 28.3 µM. Further, the figures for the GI50 in [7], in [8] and in [9] were 40.2 µM, 25.7 µM and 22 µM, respectively. Further, the TGI in [1] was 89.5 µM; in assay [2] it was above 100 µM; in assay [3], 31.9 µM; in assay [4] it was 37.4 µM; in [5], 35.9 µM; in assay [6] it was 53.6 µM. Besides, the figures for the TGI in [7], in assay [8] and in assay [9] were above 100 µM, 61.9 µM and 62.5 µM, respectively.
For the compound `CCCCCC/C=C/CCCCCCCc1cccc(O)c1C(=O)O`, the TGI in assay [1], in [3], in [5], in assay [6], in [7] and in assay [8] was above 100 µM each time. The TGI in assay [9] was above 100 µM.
For `COc1ccc(CC(C#N)c2cc(OC)c(OC)c(OC)c2)cc1` (stereo not drawn), the TGI was above 100 µM in [1]; above 100 µM in [3]; 2.7 µM in [4]; above 100 µM in assay [5]; 14.3 µM in [10]; 1.96 µM in [6]. Besides, the TGI in assay [7] was above 100 µM; in [8] it was above 47.4 µM; in [9], above 100 µM.
In the case of `C=C(CN(CCN1CCOCC1)CC(=C)c1ccc(C(=O)Nc2ccccc2N)cc1)c1ccc(C(=O)Nc2ccccc2N)cc1`, the GI50 in assay [1] was 15.8 µM; in assay [3], 6.86 µM; in [4], 8.38 µM; in assay [5], 2.48 µM; in assay [6], 2.49 µM; in assay [7] it was 9.38 µM. Also, the results for the GI50 in assay [8] and in [9] were 28.1 µM and 1.07 µM, respectively. Further, the TGI in assay [1] was above 50 µM; in assay [3] it was 16.2 µM; in assay [4], 16.7 µM; in [5], 10.6 µM; in [6], 9.11 µM; in assay [7], 24.9 µM. Also, the results for the TGI in [8] and in assay [9] were above 50 µM and 6.65 µM, respectively.
Consider `O/N=C1/C(=C/c2ccc(Cl)cc2)CCCC1C(NO)c1ccc(Cl)cc1` (stereo not drawn), for which the TGI in assay [1] was 33.8 µM; in assay [2] it was 38.9 µM; in [3] it was 22.5 µM; in assay [4], 66.2 µM; in [5], above 100 µM; in assay [6], 54 µM. The TGI was found to be 57.4 µM in assay [7], 62.2 µM in assay [8] and 42.7 µM in [9].
For the compound `NC(=O)C12CCC1C1CCCCC12N1CCOCC1` (stereo not drawn), the TGI in assay [1], in assay [2], in assay [3], in [4], in [5] and in [6] was above 100 µM each time. Besides, the TGI in assay [7], in assay [8] and in assay [9] was above 100 µM in each case.
With `CC(=O)Oc1cc(OC(C)=O)c2cc3c(cc2c1OC(C)=O)C(=O)C1(CCCC1)C3=O`, the concentration for total growth inhibition (TGI) in assay [1] was 32.1 µM; in assay [3] it was 31.7 µM; in assay [5], 30.2 µM; in [6], 34.1 µM; in [7], 40.4 µM; in assay [8], 49.3 µM. Moreover, the TGI in assay [9] came to 31.5 µM.
As for `CO[C@H]1/C=C/C[C@H](C)[C@@H](C)S(=O)(=O)NC(=O)c2ccc3c(c2)N(C[C@@H]2CC[C@H]21)C[C@@]1(CCCc2cc(Cl)ccc21)CO3`, the GI50 was 2.4 µM in assay [1]; 1.45 µM in [2]; 2.61 µM in [3]; 1.61 µM in [4]; 0.659 µM in assay [5]; 2.66 µM in assay [10]. For the same compound, the GI50 is 1.58 µM in assay [6], 3.29 µM in assay [7] and 2.9 µM in assay [9]. Also, the TGI was found to be 7.31 µM in assay [1]; 3.47 µM in [2]; 8.04 µM in [3]; 3.15 µM in assay [4]; 2.46 µM in [5]; 7.4 µM in [10]. The TGI in assay [6] is 4.12 µM; in assay [7] it was 12.7 µM; in assay [9], 8.27 µM.
As for `CN(/C(=N\O)c1ccccc1)c1ccccc1`, the TGI in assay [1] is 57.5 µM; in [10], 60 µM; in [6], 61.2 µM; in [7], above 100 µM; in [9] it was 89 µM.
Regarding `CCOC(CN(C)C(=O)OCC(Cl)(Cl)Cl)OCC`, the concentration for total growth inhibition (TGI) in [1], in assay [3], in assay [4], in [5], in assay [10] and in assay [6] was above 100 µM in each case. For the same compound, the TGI in [7], in assay [8] and in assay [9] was above 100 µM in each case.
Take `O/N=C1/C(=C/c2ccccc2)CCCC1C(NO)c1ccccc1` (stereo not drawn): the TGI in assay [1], in assay [2], in [3], in assay [5], in assay [6] and in assay [7] was above 100 µM throughout. Also, the TGI in assay [8] and in assay [9] was above 100 µM each time.
As to `CN(C)C(=S)/N=c1\ssc(=S)n1Cc1ccccn1`, the total growth inhibition concentration (TGI) was above 48.2 µM in assay [1]; above 81.4 µM in assay [2]; above 100 µM in assay [3]; above 54.4 µM in assay [4]; 11 µM in [5]; above 100 µM in assay [10]. Moreover, the results for the total growth inhibition concentration (TGI) in assay [6], in assay [7] and in [9] were above 100 µM, above 100 µM and 29.1 µM, respectively.
